Measurements taken from ChEMBL document CHEMBL4665541, “Search for new therapeutic options for the uncommon pathogen Mycobacterium chimaera: an open drug discovery approach” (Lancet Microbe, 2021).

Experiments:
Format in all cases: functional, organism-based
Set-up in all cases: conc 20 uM
[1] = test system: Mycobacterium intracellulare subsp. chimaera; assay: (§1) Inhibition of mycobacterial growth using the resazurin microtitre cell viability assay (REMA), compounds at final concentration of 20 µM (2% v/v DMSO). Hits were classed as compounds that inhibited bacterial growth by 70% or more compared to drug-free controls.; details: NCTC13781
[2] = test system: Mycobacterium tuberculosis; assay: as §1; details: H37Rv
[3] = test system: Mycobacteroides abscessus; assay: as §1; details: ATCC19977

Row | Substance | Survival [1] [%] | Survival [2] [%] | Survival [3] [%]
1 | MMV032995 | 98.4 | 89.1 | 111
2 | MMV045105 | 102 | 107 | 113
3 | MMV047015 | 85.3 | 52.2 | 111
4 | MMV053220 | 97.9 | 90.6 | 115
5 | MMV054312 | 76.8 | 46.8 | 111
6 | MMV062221 | 112 | 103 | 114
7 | MMV063404 | 90.4 | 33.5 | 108
8 | MMV069458 | 94.1 | 11.9 | 102
9 | MMV084603 | 81.6 | 98.8 | 112
10 | MMV084864 | 100 | 84.2 | 101
11 | MMV085071 | 86.4 | 93.5 | 110
12 | MMV085210 | 88.2 | 82.8 | 115
13 | MMV085230 | 111 | 93.7 | 118
14 | MMV085499 | 112 | 90.8 | 106
15 | MMV090930 | 84.6 | 38.6 | 110
16 | MMV099637 | 95.3 | 109 | 98.4
17 | MMV102872 | 97.7 | 18.3 | 114
18 | MMV146306 | 96.2 | 96.1 | 107
19 | MMV153413 | 9.37 | 26.5 | 111
20 | MMV161996 | 108 | 119 | 103
21 | MMV188296 | 98 | 95 | 109
22 | MMV200748 | 100 | 103 | 108

Row | Substance | Survival [1] [%] | Survival [2] [%] | Survival [3] [%]
23 | MMV202458 | 98.1 | 132 | 99.9
24 | MMV202553 | 100 | 83.4 | 109
25 | MMV228911 | 89.5 | 114 | 97.2
26 | MMV272144 | 105 | 85.8 | 110
27 | MMV392832 | 93.8 | 75.4 | 106
28 | MMV393144 | 85.6 | 92.6 | 103
29 | MMV393995 | 95.8 | 46.2 | 93.9
30 | MMV407539 | 98.9 | 85.3 | 103
31 | MMV407834 | 114 | 97 | 113
32 | MMV461553 | 7.21 | 42.2 | 103
33 | MMV495543 | 86.9 | 85.3 | 84.2
34 | MMV553002 | 66.4 | 34.8 | 113
35 | MMV560185 | 89.9 | 80.8 | 116
36 | MMV595321 | 98.2 | 25.4 | 117
37 | MMV611037 | 105 | 92.7 | 106
38 | MMV634140 | 84 | 81 | 110
39 | MMV637229 | 96.4 | 87 | 112
40 | MMV637953 | 117 | 102 | 145
41 | MMV652003 | 97.2 | 112 | 109
42 | MMV658988 | 74.9 | 4.93 | 101
43 | MMV658993 | 100 | 83.9 | 101
44 | MMV659004 | 100 | 6.84 | 112

Row | Substance | Survival [1] [%] | Survival [2] [%] | Survival [3] [%]
45 | MMV659010 | 91.7 | 85.6 | 112
46 | MMV661713 | 47.5 | 25.2 | 112
47 | MMV663250 | 116 | 95.4 | 104
48 | MMV667494 | 95.7 | 84.1 | 110
49 | MMV668727 | 96.8 | 100 | 102
50 | MMV671636 | 85.9 | 95.9 | 112
51 | MMV675968 | 1.74 | 15 | 87.6
52 | MMV675969 | 107 | 95.8 | 93.7
53 | MMV675993 | 109 | 92.9 | 102
54 | MMV675994 | 108 | 81.9 | 105
55 | MMV675995 | 97.4 | 90.8 | 111
56 | MMV675996 | 94.3 | 102 | 94.2
57 | MMV675997 | 98.5 | 99.4 | 105
58 | MMV675998 | 94.7 | 89.7 | 117
59 | MMV676008 | 116 | 99.7 | 123
60 | MMV676048 | 94.4 | 90.5 | 114
61 | MMV676050 | 95.8 | 84.8 | 110
62 | MMV676053 | 105 | 89.4 | 97.1
63 | MMV676057 | 110 | 109 | 109
64 | MMV676063 | 112 | 91 | 105
65 | MMV676064 | 102 | 96.8 | 117
66 | MMV676159 | 100 | 99.4 | 106

Row | Substance | Survival [1] [%] | Survival [2] [%] | Survival [3] [%]
67 | MMV676161 | 103 | 80.2 | 114
68 | MMV676162 | 112 | 93.3 | 117
69 | MMV676182 | 104 | 91.4 | 102
70 | MMV676186 | 98.8 | 94.5 | 105
71 | MMV676191 | 105 | 100 | 99.5
72 | MMV676204 | 101 | 99.7 | 107
73 | MMV676260 | 97.1 | 84.8 | 108
74 | MMV676269 | 104 | 88.8 | 111
75 | MMV676270 | 102 | 82.7 | 108
76 | MMV676350 | 105 | 94.9 | 116
77 | MMV676358 | 92.3 | 98.4 | 114
78 | MMV676377 | 77.7 | 50.2 | 108
79 | MMV676379 | 87.9 | 98 | 116
80 | MMV676380 | 86.9 | 97 | 102
81 | MMV676382 | 99 | 88.4 | 122
82 | MMV676383 | 79.3 | 1.2 | 110
83 | MMV676384 | 101 | 54.5 | 109
84 | MMV676386 | 90.1 | 24 | 107
85 | MMV676388 | 101 | 87.4 | 110
86 | MMV676389 | 98.7 | 51.7 | 113
87 | MMV676395 | -0.21 | 2.49 | 111
88 | MMV676398 | 99.3 | 92 | 111

Row | Substance | Survival [1] [%] | Survival [2] [%] | Survival [3] [%]
89 | MMV676401 | 88 | 95.8 | 113
90 | MMV676406 | 105 | 67.8 | 111
91 | MMV676409 | 85.7 | 19.2 | 122
92 | MMV676411 | 98.2 | 16.4 | 101
93 | MMV676412 | 92.8 | 6.6 | 105
94 | MMV676431 | 98.6 | 81.5 | 115
95 | MMV676439 | 34.7 | 91.7 | 114
96 | MMV676442 | 97.1 | 86.8 | 123
97 | MMV676444 | 97.5 | 56.3 | 113
98 | MMV676445 | 74.2 | 30 | 111
99 | MMV676449 | 84.8 | 90.2 | 102
100 | MMV676461 | 104 | 78.3 | 114
101 | MMV676468 | 96.9 | 10.5 | 103
102 | MMV676470 | 100 | 90.7 | 115
103 | MMV676472 | 92.2 | 120 | 115
104 | MMV676474 | 88.6 | 60.1 | 99
105 | MMV676476 | 100 | 72.8 | 108
106 | MMV676477 | 73.1 | 4.54 | 111
107 | MMV676478 | 96.5 | 44.5 | 111
108 | MMV676480 | 104 | 106 | 104
109 | MMV676492 | 97.8 | 83.1 | 101
